Substitutions are numbered along the chain they refer to. Where “and” joins values, the source holds several entries; their conditions need not be identical. Equal values may be shown once.

In assay [1] the target is T1, ALK2 (Mus musculus, UniProt P37172).
T1 construct: The C2C12 cell line was selected for the measurement of ALK2 activity using BMP6 as the agonist; host or cells: C2C12
T1 sequence (P37172 21-509): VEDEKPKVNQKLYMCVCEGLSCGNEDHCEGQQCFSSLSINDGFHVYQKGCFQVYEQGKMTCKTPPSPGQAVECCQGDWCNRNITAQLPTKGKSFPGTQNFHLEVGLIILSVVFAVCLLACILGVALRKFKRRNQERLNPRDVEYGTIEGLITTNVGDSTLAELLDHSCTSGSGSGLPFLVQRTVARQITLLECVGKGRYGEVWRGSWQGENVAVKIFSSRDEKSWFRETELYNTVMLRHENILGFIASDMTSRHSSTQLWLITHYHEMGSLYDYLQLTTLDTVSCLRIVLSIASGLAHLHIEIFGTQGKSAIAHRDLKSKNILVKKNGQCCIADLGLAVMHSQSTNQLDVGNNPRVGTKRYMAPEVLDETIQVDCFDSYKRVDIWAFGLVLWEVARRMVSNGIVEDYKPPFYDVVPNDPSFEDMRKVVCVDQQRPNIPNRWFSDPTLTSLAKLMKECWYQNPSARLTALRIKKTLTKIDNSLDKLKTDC
Briefly: In-cell Western ALK2 assay (C2C12 cells, BMP6 as agonist). The class given is cell-based. The settings on record: read-out: BMP6 ICW. The text has this: 3. In-Cell Western ALK1 and ALK2 Assays in 384-Well Plate Format.
We also optimized cell-based In-cell Western assays for measurements of ALK1 and ALK2 activities that were used to determine compound activities in these two kinases. The cell lines and agonists used were same as described in above cell-based HTRF ALK1 and ALK2 assays. The initial cell plating and compound treatment were also same. The main difference is the detection of phosphorylation status of SMAD1. In t-cell Western assay, the cells were fixed and phosphorylation status of SMAD1 was detected by the ELISA instead of using the HTRF assay kit in above assay.
HyClone Fetal Bovine Serum was obtained from GE healthcare life sciences (Logan, Utah). BMP6 and BMP9 were purchased from R&D System (R&D). Anti-P-SMAD 1/5/8 rabbit mAb and anti-rabbit IgG, HRP-Linked antibody were purchased from Cell Signaling Technology (Danvers, Mass.). BioFX Chemiluminescent Ultra-Sensitive HRP Microwell Substrate ECL Reagent was obtained from SurModics (Edina, Minn.). The compound plates and the white solid MB assay plates were from Greiner Bio-one (Monroe, N.C.).
Similarly as described in above HTRF cell-based assay, this assay was performed in 384 well plate format. […] Pre-starved cells were then plated in 384 well plate in the starvation medium (containing in 0.1% FBS). After 4 hours, compound dilutions in DMSO were added to the assay plate and incubated for 30 minutes. The assay plate was then added with BMP6 for C2C12 cells or BMP9 for BAOEC cells and incubated for 30 minutes.
The cells were washed in the plate washer with PBS and blocked with 2% BSA in PBS for 1 h at room temperature on the rotator. After removing the blocking reagent, the cells were incubated with the anti-p-SMAD1 antibody in 2% BSA in PBS for overnight at 4° C. on rotator. The cells were washed with PBS in the plate washer and incubated with HRP conjugated second antibody in 2% BSA in PBS for 1 hour at room temperature. After a cell wash with PBS, ECL detection reagent was added and the plate was read in the luminesce mode in the ViewLux plate reader.

In assay [2] the target is ALK1 (Homo sapiens, UniProt P37023). The assay can be described thus: TR-FRET enzymatic ALK kinase assay, ALK1. Background: In TR-FRET formats the signal depends on donor and acceptor labels being close together.
Description: (§1) Briefly, the ALKs enzymatic assay was initiated by dispense 2.5 μl enzyme in 1× kinase reaction buffer. The assay plate was then added with compounds followed by incubation at room temperature for 10 minutes. Then 2.5 μl/well substrate was added.
For assay [3], the target named is T2, ALK2 (Homo sapiens, UniProt Q04771).
T2 sequence (Q04771 21-509): T1 sequence (P37172 21-509) with V1M, Q10P, I121L, E162D, S310P
The assay can be described thus: TR-FRET enzymatic ALK kinase assay, ALK2.
Description: as §1

A further assay deals with ALK3 (Homo sapiens, UniProt P36894). The assay can be described thus: TR-FRET enzymatic ALK kinase assay, ALK3.
Another assay addresses T3, ALK4 (Homo sapiens, UniProt P36896).
T3 sequence (P36896 24-505): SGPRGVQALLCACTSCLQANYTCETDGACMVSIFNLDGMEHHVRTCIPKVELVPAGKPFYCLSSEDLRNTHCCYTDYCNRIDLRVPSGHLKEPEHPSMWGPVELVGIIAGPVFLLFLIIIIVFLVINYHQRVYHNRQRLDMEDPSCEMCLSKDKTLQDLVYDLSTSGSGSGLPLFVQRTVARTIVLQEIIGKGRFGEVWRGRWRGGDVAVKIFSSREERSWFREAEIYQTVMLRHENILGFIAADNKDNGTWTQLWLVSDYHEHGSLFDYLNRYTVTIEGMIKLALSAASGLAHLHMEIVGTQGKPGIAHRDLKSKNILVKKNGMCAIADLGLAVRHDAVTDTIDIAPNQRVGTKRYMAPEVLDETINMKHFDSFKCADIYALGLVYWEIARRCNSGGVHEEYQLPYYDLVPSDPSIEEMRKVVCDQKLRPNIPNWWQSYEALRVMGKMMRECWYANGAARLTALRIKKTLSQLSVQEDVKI
Briefly: TR-FRET enzymatic ALK kinase assay, ALK4.

A further assay has as its target T4, ALK5 (Homo sapiens, UniProt P36897).
T4 sequence (P36897 34-503): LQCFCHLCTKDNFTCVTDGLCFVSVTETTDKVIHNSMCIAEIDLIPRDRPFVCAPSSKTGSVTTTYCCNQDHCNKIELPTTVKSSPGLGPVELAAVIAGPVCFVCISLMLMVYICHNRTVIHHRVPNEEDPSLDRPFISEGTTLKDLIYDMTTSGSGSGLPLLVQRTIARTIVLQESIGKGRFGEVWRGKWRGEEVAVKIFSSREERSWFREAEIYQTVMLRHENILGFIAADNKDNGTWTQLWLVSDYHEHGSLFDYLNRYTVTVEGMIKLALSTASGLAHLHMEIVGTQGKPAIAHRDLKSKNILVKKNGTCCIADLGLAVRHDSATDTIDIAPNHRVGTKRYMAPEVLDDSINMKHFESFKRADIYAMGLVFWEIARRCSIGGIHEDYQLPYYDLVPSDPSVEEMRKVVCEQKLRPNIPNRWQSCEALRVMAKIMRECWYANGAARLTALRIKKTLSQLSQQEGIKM
The assay can be described thus: TR-FRET enzymatic ALK kinase assay, ALK5.

Another assay addresses ALK6 (Homo sapiens, UniProt O00238). The assay can be described thus: TR-FRET enzymatic ALK kinase assay, ALK6.
In assay [4] the target is T5, ALK1 (Bos taurus, UniProt A4FUX2).
T5 construct: The BAOEC cell line was employed for the measurement of ALK1 activity using BMP9 as the agonist; host or cells: BAOEC (bovine aortic endothelial cells)
T5 sequence (A4FUX2 23-503): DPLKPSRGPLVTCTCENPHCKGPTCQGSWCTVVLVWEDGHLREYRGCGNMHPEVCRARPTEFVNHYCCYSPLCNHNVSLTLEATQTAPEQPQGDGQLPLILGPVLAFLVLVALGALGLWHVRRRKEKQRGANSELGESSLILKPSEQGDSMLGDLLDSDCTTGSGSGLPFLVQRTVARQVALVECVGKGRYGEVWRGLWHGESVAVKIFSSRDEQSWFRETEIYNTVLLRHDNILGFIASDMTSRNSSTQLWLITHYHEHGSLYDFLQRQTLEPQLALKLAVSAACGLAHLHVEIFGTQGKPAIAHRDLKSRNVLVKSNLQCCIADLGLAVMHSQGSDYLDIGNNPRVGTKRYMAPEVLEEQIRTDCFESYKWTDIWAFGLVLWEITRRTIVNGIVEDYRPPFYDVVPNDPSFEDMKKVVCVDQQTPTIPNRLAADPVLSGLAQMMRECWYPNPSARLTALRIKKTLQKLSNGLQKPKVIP
The assay can be described thus: HTRF pSMAD1 cell-based ALK1 assay (BAOEC cells, BMP9 as agonist). Set-up: species or system Bovine. As to the method:
2. HTRF Cell-Based ALK1 and ALK2 Assays in 384-Well Plate Format We have developed a cell based ALK1 kinase assay and a cell-based ALK2 assay. The BAOEC cell line was employed for the measurement of ALK1 activity using BMP9 as the agonist. The C2C12 cell line was selected for the measurement of ALK2 activity using BMP6 as the agonist. The kinase specificity was defined by the specific cell line and agonist. The kinase activity was determined by the status of SMD 1/5/8 phosphorylation stimulated by the agonist.
HyClone Fetal Bovine Serum was obtained from GE healthcare life sciences (Logan, Utah). BMP6 and BMP9 were purchased from R&D System. […] The compound plates and the white solid MB assay plates were purchased from Greiner Bio-one (Monroe, N.C.).
HTRF optimization experiments were performed in 384 well plate format. […] Pre-starved cells were then plated in 384 well plate in the starvation medium (containing in 0.1% FBS). After 4 hours, compounds were added to the assay plate and incubated for 30 minutes. The assay plate was then added with BMP6 for C2C12 cells or BMP9 for BAOEC cells and incubated for 30 minutes.
HTRF assay was performed to measure the status of SMAD 1 phosphorylation after stimulated with the agonist (Table 3). This HTRF phospho SMAD1 cell assay was developed and optimized for the homogenous detection of phospho SMAD 1 levels in cells. […] The plate was incubated at room temperature for overnight.

Assay [5] addresses T1, ALK2. Briefly: HTRF pSMAD1 cell-based ALK2 assay (C2C12 cells, BMP6 as agonist). The method, boiled down: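 Cells pre-starved, plated in 0.1% FBS medium for 4 h, compound added for 30 min, then stimulated 30 min with BMP9 (BAOEC) or BMP6 (C2C12). Phospho-SMAD1 measured by HTRF after overnight room-temperature detection incubation.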
A further assay concerns BMP4. Briefly: BMP4 HTRF assay. It is filed as cell-based.
Assay [6] in a line: Cell-based assay, TGFb1 (Cell IC50).

ALK6, sequence (O00238 14-502): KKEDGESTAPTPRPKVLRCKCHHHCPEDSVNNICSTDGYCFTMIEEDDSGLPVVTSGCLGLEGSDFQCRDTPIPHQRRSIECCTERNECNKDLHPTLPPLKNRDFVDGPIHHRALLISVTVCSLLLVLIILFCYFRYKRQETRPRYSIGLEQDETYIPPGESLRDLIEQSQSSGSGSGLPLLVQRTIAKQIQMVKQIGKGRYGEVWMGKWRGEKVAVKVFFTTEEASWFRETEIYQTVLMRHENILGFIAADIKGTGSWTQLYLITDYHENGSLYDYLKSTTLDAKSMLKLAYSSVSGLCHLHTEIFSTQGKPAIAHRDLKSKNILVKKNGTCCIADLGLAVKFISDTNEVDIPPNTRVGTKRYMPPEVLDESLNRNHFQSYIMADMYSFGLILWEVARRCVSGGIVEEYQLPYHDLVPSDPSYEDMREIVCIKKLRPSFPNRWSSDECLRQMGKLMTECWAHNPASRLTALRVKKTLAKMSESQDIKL
ALK1 (Homo sapiens, UniProt P37023), sequence (P37023 22-503): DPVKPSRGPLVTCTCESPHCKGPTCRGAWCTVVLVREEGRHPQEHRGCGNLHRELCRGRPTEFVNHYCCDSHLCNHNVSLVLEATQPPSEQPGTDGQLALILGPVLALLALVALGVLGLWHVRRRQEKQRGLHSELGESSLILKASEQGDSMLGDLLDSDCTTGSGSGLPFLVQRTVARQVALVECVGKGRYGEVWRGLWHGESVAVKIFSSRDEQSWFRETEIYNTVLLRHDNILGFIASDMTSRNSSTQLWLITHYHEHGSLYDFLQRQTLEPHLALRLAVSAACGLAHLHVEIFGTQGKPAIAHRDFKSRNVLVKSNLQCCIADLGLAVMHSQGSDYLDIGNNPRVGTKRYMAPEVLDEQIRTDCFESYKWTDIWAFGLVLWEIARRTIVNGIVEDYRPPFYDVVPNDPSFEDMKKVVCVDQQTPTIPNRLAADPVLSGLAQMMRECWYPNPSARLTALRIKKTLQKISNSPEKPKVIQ
ALK3, sequence (P36894 24-532): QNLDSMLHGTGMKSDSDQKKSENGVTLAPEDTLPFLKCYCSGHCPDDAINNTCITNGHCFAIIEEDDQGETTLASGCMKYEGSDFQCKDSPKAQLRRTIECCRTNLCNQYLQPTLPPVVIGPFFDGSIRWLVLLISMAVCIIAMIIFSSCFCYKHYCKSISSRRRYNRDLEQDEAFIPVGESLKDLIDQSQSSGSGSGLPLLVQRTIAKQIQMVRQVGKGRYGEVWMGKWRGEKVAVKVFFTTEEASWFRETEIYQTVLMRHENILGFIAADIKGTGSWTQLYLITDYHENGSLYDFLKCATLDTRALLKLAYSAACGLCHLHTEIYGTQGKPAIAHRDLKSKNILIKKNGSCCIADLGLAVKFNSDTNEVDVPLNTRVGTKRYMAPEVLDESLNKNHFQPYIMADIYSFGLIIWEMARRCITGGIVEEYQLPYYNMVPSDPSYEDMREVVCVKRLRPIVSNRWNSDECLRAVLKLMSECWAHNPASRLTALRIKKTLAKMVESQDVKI
Description for ALK3: as §1
Description for ALK4: as §1
Description for ALK5: Six ALK kinase enzyme assays were developed for determination of compound activities on ALK1, ALK2, ALK3, ALK4, ALK5 and ALK6.
as §1
Description for ALK6: as §1

Regarding `CS(=O)(=O)c1cccc(-c2cnn3cc(-c4ccc(C5CCCCN5)cc4)cnc23)c1` (stereo not shown) [Compound 137, 3-(3-(methylsulfonyl)phenyl)-6-(4-(piperidin-2-yl)phenyl)pyrazolo[1,5-a]pyrimidine], the IC50 on ALK2 [1] was 0.15 µM and 0.25 µM; against ALK1 [2], 0.25 µM; against ALK2 [3] it was 0.075 µM; at ALK3, more than 10 µM; against ALK4, more than 10 µM; against ALK5, more than 10 µM. For the same compound, the IC50 against ALK6 was more than 10 µM.
Consider `C[C@@H]1CNC[C@H](C)N1c1ccc(-c2cnc3c(-c4ccc(CO)c5ccccc45)cnn3c2)cc1` [Compound 22, (4-(6-(4-((2R,6S)-2,6-dimethylpiperazin-1-yl)phenyl)pyrazolo[1,5-a]pyrimidin-3-yl)naphthalen-1-yl)methanol], for which the IC50 was 0.033 µM on ALK1 [4]; 0.047 µM on ALK2 [5] (HTRF assay, BMP6 as agonist, C2C12 cells, read-out: BMP6 HTRF); 0.002 µM on ALK2 [5] (cell-based assay, BMP6, read-out: Cell IC50 BMP6); 0.82 µM in the assay with BMP4; 0.243 µM in [6]; 0.004 µM at ALK1 [2]. The IC50 stood at 0.0097 µM against ALK2 [3]; 0.034 µM on ALK3; 1.36 µM against ALK4; 4.66 µM at ALK5; 0.647 µM against ALK6.
Turning to `CS(=O)(=O)c1cccc(-c2cnn3cc(-c4ccc(C5CCNC5)cc4)cnc23)c1` (stereo not shown) [Compound 129, 3-(3-(methylsulfonyl)phenyl)-6-(4-(pyrrolidin-3-yl)phenyl)pyrazolo[1,5-a]pyrimidine], the IC50 at ALK2 [1] is 0.58 µM and 0.152 µM; at ALK1 [2], 0.49 µM; on ALK2 [3], 0.063 µM; against ALK3, more than 10 µM; on ALK4, more than 10 µM; at ALK5, more than 10 µM. In addition, the IC50 against ALK6 is more than 10 µM.

Source of the values: patent publication US10513521B2, “Compositions and methods for inhibiting BMP” (The Brigham and Women's Hospital, Inc., priority 2014, dated 2019).
